± gives the expanded uncertainty stated by the source.

The nature of the series: activity coefficient (dimensionless); of the first substance listed, at infinite dilution; xn = mol fraction of the nth substance listed. The settings on record: Liquid, Chromatography, x1 = 0.

As for `C1CCCCCCC1` [cyclooctane] + COCC[N+]1(C)CCOCC1.O=S(=O)([N-]S(=O)(=O)C(F)(F)F)C(F)(F)F, the activity coefficient is 36.6 ± 2.5 (318.15 K); 32.6 ± 2.2 (328.15 K); 29.6 ± 2 (338.15 K); 26.7 ± 1.8 (348.15 K); 24.2 ± 1.7 (358.15 K); 22.1 ± 1.5 (368.15 K).
For `CCCCCCC` [heptane] + COCC[N+]1(C)CCOCC1.O=S(=O)([N-]S(=O)(=O)C(F)(F)F)C(F)(F)F, the activity coefficient turned out to be 54.4 ± 3.7 (318.15 K); 48.7 ± 3.3 (328.15 K); 43.8 ± 3 (338.15 K); 39.7 ± 2.7 (348.15 K); 36.2 ± 2.5 (358.15 K); 33.1 ± 2.3 (368.15 K).
As to `CC(C)=O` [acetone] + COCC[N+]1(C)CCOCC1.O=S(=O)([N-]S(=O)(=O)C(F)(F)F)C(F)(F)F, the activity coefficient is, setting by setting: (318.15 K) 0.43 ± 0.035; (328.15 K) 0.442 ± 0.036; (338.15 K) 0.451 ± 0.036; (348.15 K) 0.461 ± 0.036; (358.15 K) 0.47 ± 0.037; (368.15 K) 0.48 ± 0.037.
For the molecule `Cc1cccc(C)c1` [1,3-dimethylbenzene] + COCC[N+]1(C)CCOCC1.O=S(=O)([N-]S(=O)(=O)C(F)(F)F)C(F)(F)F, the activity coefficient by setting is: (318.15 K) 3.05 ± 0.21; (328.15 K) 3.02 ± 0.21; (338.15 K) 2.99 ± 0.2; (348.15 K) 2.97 ± 0.2; (358.15 K) 2.94 ± 0.2; (368.15 K) 2.92 ± 0.2.
In the case of `CCCO` [propan-1-ol] + COCC[N+]1(C)CCOCC1.O=S(=O)([N-]S(=O)(=O)C(F)(F)F)C(F)(F)F, the activity coefficient (318.15 K) is 2.39 ± 0.16; the activity coefficient (328.15 K) came out at 2.14 ± 0.15; the activity coefficient (338.15 K) was determined as 1.96 ± 0.13; the activity coefficient (348.15 K) was found to be 1.79 ± 0.12; the activity coefficient (358.15 K) stood at 1.63 ± 0.11; the activity coefficient (368.15 K) was 1.52 ± 0.1.
As for `CCCC=O` [butanal] + COCC[N+]1(C)CCOCC1.O=S(=O)([N-]S(=O)(=O)C(F)(F)F)C(F)(F)F, the activity coefficient is, setting by setting: (318.15 K) 0.871 ± 0.056; (328.15 K) 0.884 ± 0.056; (338.15 K) 0.891 ± 0.057; (348.15 K) 0.902 ± 0.057; (358.15 K) 0.909 ± 0.058; (368.15 K) 0.918 ± 0.058.
Consider `CCCCCCCCC` [nonane] + COCC[N+]1(C)CCOCC1.O=S(=O)([N-]S(=O)(=O)C(F)(F)F)C(F)(F)F, for which the activity coefficient by setting is: (318.15 K) 125 ± 9; (328.15 K) 108 ± 7; (338.15 K) 95.8 ± 6.6; (348.15 K) 85.6 ± 5.9; (358.15 K) 76.3 ± 5.2; (368.15 K) 68.7 ± 4.7.
In the case of `C1=CCCCC1` [cyclohexene] + COCC[N+]1(C)CCOCC1.O=S(=O)([N-]S(=O)(=O)C(F)(F)F)C(F)(F)F, the activity coefficient (318.15 K) worked out at 9.14 ± 0.62; the activity coefficient (328.15 K) is 8.62 ± 0.59; the activity coefficient (338.15 K) was 8.21 ± 0.56; the activity coefficient (348.15 K) came to 7.84 ± 0.53; the activity coefficient (358.15 K) stood at 7.45 ± 0.51; the activity coefficient (368.15 K) worked out at 7.08 ± 0.48.
Turning to `C=CCCC` [1-pentene] + COCC[N+]1(C)CCOCC1.O=S(=O)([N-]S(=O)(=O)C(F)(F)F)C(F)(F)F, the activity coefficient is 11 ± 0.8 (318.15 K); 10.3 ± 0.7 (328.15 K); 9.79 ± 0.67 (338.15 K); 9.25 ± 0.63 (348.15 K); 8.83 ± 0.6 (358.15 K); 8.35 ± 0.57 (368.15 K).
As for `CC#N` [acetonitrile] + COCC[N+]1(C)CCOCC1.O=S(=O)([N-]S(=O)(=O)C(F)(F)F)C(F)(F)F, the activity coefficient runs as follows: (318.15 K) 0.423 ± 0.035; (328.15 K) 0.426 ± 0.035; (338.15 K) 0.428 ± 0.035; (348.15 K) 0.431 ± 0.035; (358.15 K) 0.433 ± 0.035; (368.15 K) 0.436 ± 0.035.
Regarding `CCCC(C)=O` [pentan-2-one] + COCC[N+]1(C)CCOCC1.O=S(=O)([N-]S(=O)(=O)C(F)(F)F)C(F)(F)F, the activity coefficient is 0.88 ± 0.056 (318.15 K); 0.89 ± 0.057 (328.15 K); 0.9 ± 0.057 (338.15 K); 0.91 ± 0.058 (348.15 K); 0.918 ± 0.058 (358.15 K); 0.925 ± 0.058 (368.15 K).
For the molecule `CC(C)CO` [2-methyl-1-propanol] + COCC[N+]1(C)CCOCC1.O=S(=O)([N-]S(=O)(=O)C(F)(F)F)C(F)(F)F, the activity coefficient is, setting by setting: (318.15 K) 3.19 ± 0.22; (328.15 K) 2.81 ± 0.19; (338.15 K) 2.51 ± 0.17; (348.15 K) 2.25 ± 0.15; (358.15 K) 2.04 ± 0.14; (368.15 K) 1.89 ± 0.13.
For `CCC(=O)CC` [pentan-3-one] + COCC[N+]1(C)CCOCC1.O=S(=O)([N-]S(=O)(=O)C(F)(F)F)C(F)(F)F, the activity coefficient was found to be 0.895 ± 0.057 (318.15 K); 0.912 ± 0.058 (328.15 K); 0.927 ± 0.059 (338.15 K); 0.941 ± 0.059 (348.15 K); 0.952 ± 0.06 (358.15 K); 0.967 ± 0.061 (368.15 K).
`CCCCC` [pentane] + COCC[N+]1(C)CCOCC1.O=S(=O)([N-]S(=O)(=O)C(F)(F)F)C(F)(F)F: the activity coefficient is, setting by setting: (318.15 K) 25 ± 1.7; (328.15 K) 22.5 ± 1.5; (338.15 K) 20.6 ± 1.4; (348.15 K) 19 ± 1.3; (358.15 K) 17.4 ± 1.2; (368.15 K) 16.3 ± 1.1.
As for `CC(C)CC(C)(C)C` [2,2,4-trimethylpentane] + COCC[N+]1(C)CCOCC1.O=S(=O)([N-]S(=O)(=O)C(F)(F)F)C(F)(F)F, the activity coefficient (318.15 K) turned out to be 55.9 ± 3.8; the activity coefficient (328.15 K) was 49.5 ± 3.4; the activity coefficient (338.15 K) turned out to be 45 ± 3.1; the activity coefficient (348.15 K) is 40.8 ± 2.8; the activity coefficient (358.15 K) was found to be 37.2 ± 2.5; the activity coefficient (368.15 K) was determined as 34.1 ± 2.3.
Regarding `C1CCOC1` [tetrahydrofuran] + COCC[N+]1(C)CCOCC1.O=S(=O)([N-]S(=O)(=O)C(F)(F)F)C(F)(F)F, the activity coefficient turned out to be 0.858 ± 0.055 (318.15 K); 0.867 ± 0.055 (328.15 K); 0.873 ± 0.056 (338.15 K); 0.882 ± 0.056 (348.15 K); 0.888 ± 0.057 (358.15 K); 0.895 ± 0.057 (368.15 K).
For `CC(C)(C)O` [2-methylpropan-2-ol] + COCC[N+]1(C)CCOCC1.O=S(=O)([N-]S(=O)(=O)C(F)(F)F)C(F)(F)F, the activity coefficient was determined as 2.22 ± 0.15 (318.15 K); 2.03 ± 0.14 (328.15 K); 1.88 ± 0.13 (338.15 K); 1.75 ± 0.12 (348.15 K); 1.62 ± 0.11 (358.15 K); 1.52 ± 0.1 (368.15 K).

Source of the values: the NIST ThermoML archive (doi:10.1016/j.jct.2011.11.021).
